Drawing on patent publication US6706748B2 (priority 2000, dated 2004), this text covers melting point for five molecules.

In the case of `COc1ccc(S(=O)(=O)N(C(=O)c2snc(Cl)c2Cl)c2ccc(Cl)cc2)cc1` [Ia-68, N-(3,4-dichloro-5-isothiazolecarbonyl)-N-(4-chlorophenyl)-4-methoxybenzenesulfonamide], the melting point (as a rule, the temperature of the solid-liquid transition) is 154 to 158 °C.

With `O=C(CC(=O)c1snc(Cl)c1Cl)c1ccc(O)cc1` [Ic-148, 1-(3,4-dichloro-5-isothiazolyl)-3-(4-hydroxyphenyl)-1,3-propanedione], the melting point was in the range of 224 to 227 °C.

In turn, `COC(=O)C(C#N)C(=O)c1snc(Cl)c1Cl` (centres unmarked) [Ie-1, methyl 2-cyano-3-(3,4-dichloro-5-isothiazolyl)-3-oxopropanoate] came in with a melting point of 119 to 122 °C.

In the case of `CCOCOc1ccc(C(=O)CC(=O)c2snc(Cl)c2Cl)cc1` [Ic-145, 1-(3,4-dichloro-5-isothiazolyl)-3-(4-ethoxymethoxyphenyl)-1,3-propanedione], the melting point was 174 °C.

As to `COc1ccc(C(=O)CC(=O)c2snc(Cl)c2Cl)cc1`, the melting point was in the range of 138 to 139 °C.
